Laboratory results taken from US10183026B2, “Method of adjuvant treatment with chlorophyllin containing therapeutic preparation including for radioprotection of normal tissues during radiation therapy and kit therefor” (priority 2016, dated 2019).

Legend:
[1] = tested on: MCF7 human breast cancer cells; assay: Cancer stem cell frequency (Aldefluor, CD24-CD44+, Hoechst side population), MCF7; type: cell-based; details: 4 Gy or 8 Gy
Procedure: (§1) For cancer stem cell analysis, by Aldefluor assay, MCF7 cells and MDA MB231 cells were stained with either Aldefluor reagent or PE-[…], APC-Cy7CD44, antibodies for 20 min on ice. The cells were washed and fixed with 1% paraformaldehyde for 20 min and stained with Hoechst 33342 (10 mg/ml) for 4 h. Isotype controls stained cells, single antibody stained cells, and fluorescence minus one (FMO) controls were used for compensation and gating. The cells were acquired on a flow Cytometer (Partec Cyflow) and analysed using FlowJo 7.6.5 (Treestar, Inc., Ashland) software.

MCF-7 cells = assay: Reactive oxygen species by DCFDA, DHE, DHR123 fluorescence; type: cell-based, human; details: 50 μM
Procedure: MCF-7 cells (1×10^5) were stained with H2DCF-DA (10 μM) Ex./Em. 485/535 nm or dihydroethidium (DHE 5 μM) 518/605 nm or DHR 123 (5 μM) 500/536 nm for 20 min and incubated with chlorophyllin (50 μM) or vehicle for indicated time intervals at 37° C. Cells were exposed to 4 Gy IR and fluorescence was monitored at respective wavelengths using BioTek Microplate Reader (Synergy).

[2] = tested on: MCF-7 human breast cancer cells; assay: Mitotic catastrophe, Hoechst stained nuclei; type: cell-based
Procedure: MCF-7 cells (3×10^5 cells) were grown on the coverslip, treated with indicated concentrations of chlorophyllin (0, 10, 20, 50 or 100 μM) and exposed for 48 hrs to indicated doses of radiation (4 Gy and 8 Gy). After irradiation cells were fixed and stained with Hoechst and observed under fluorescence microscope. Cells with mitotic abnormalities have been counted for each group.

[3] = Pharmacokinetic study, serum half-life; type: in vivo; details: mice
[4] = tested on: A549 human lung cancer cells; assay: Clonogenic survival assay, A549; type: cell-based
Procedure: (§2) A549 and MCF 7 cells (2000 cells for control, 4 Gy and 5000 cells for 8 Gy treatments) were plated overnight in 6 well plates followed by treatment with indicated concentrations of chlorophyllin (0, 10, 20, 50 or 100 μM) for 2 h and exposed to indicated doses of radiation. After radiation exposure plates were incubated at 37° C. in CO2 incubator for 12 days for the development of colonies. After the colony formation, the plates were washed with PBS, fixed with methanol and stained with crystal violet. The colonies with more than 50 cells were counted and the survival fraction was calculated using the following formula: Survival fraction=No. of colonies/[no. of cells plated X (plating efficiency/100)], where plating efficiency is the ratio between the number of colonies developed to the number of cells plated in control.

G-CSF = assay: Serum levels of G-CSF as a function of time; type: in vivo, mice; details: 500 mg/Kg bw orally for 3 days; 2, 24, 48 and 72 hrs
Procedure: (§3) CHL formulation dose and duration: 500 mg/Kg bw given orally for 3 consecutive days.

[5] = tested on: hematopoietic stem cells in the bone marrow; assay: Hoechst side population assay of bone marrow; type: in vivo, BALB/c mice; details: 500 mg/Kg bw orally for 3 consecutive days
Procedure: 8- to 9 weeks-old inbred BALB/c male mice, weighing approximately 20-25 g, were grouped into untreated control and CHL treated groups.
as §3
Side population analysis: The femur bones the above mentioned mice were dissected and the marrow was flushed out into cold Iscove's Modified Dulbecco's Medium (IMDM), 2% FBS using a 21-gauge needle. Nucleated cells were counted using Hemocytometer and trypan blue dye exclusion. Three million cells from each mouse were resuspended in pre-warmed (37° C.) DMEM without phenol red. Hoechst 33342 ([…]) was added and cells were incubated at 37° C. for 90 min with intermittent shaking. At the end of incubation, cells were washed with DMEM without phenol red and kept on ice and acquired on a flow cytometer within 2 h. Verapamil (100 μM concentration) treated bone marrow cells were used to identify the Hoechst side population in this assay.
Verapamil dose: 100 μM final concentration

[6] = tested on: MCF7 human breast cancer cells; assay: γH2AX foci formation assay, MCF7; type: cell-based; details: 50 μM
Procedure: (§4) A549 cells and MCF (3×10^5 cells) were grown on the coverslip, treated with 50 μM of chlorophyllin, followed by 4 Gy radiation exposure. At different time intervals after irradiation (either 15 min or 120 min), cells were fixed with 4% paraformaldehyde, permeabilized using Triton X-100, blocked with 5% bovine serum albumin and then treated with anti-γ-H2AX antibody. Then cells were stained with FITC labeled secondary antibody and visualized using fluorescence microscope. The average number of foci per cell was calculated after counting the foci from 100 cells per group.

Gr-1+ granulocytes = assay: Frequency of Gr-1+ granulocytes in bone marrow and blood; type: in vivo, mice
Procedure: Percent granulocytes are a biological marker for efficacy of chlorophyllin as a radioprotector in vivo. […] This is the preferred dose range. Although percentage of granulocytes increases at doses 720 and 900 mg/kg body weight, these doses are not preferred to be translated to humans. (FIG. 1E)

normal lung epithelia = assay: Gamma radiation (4 Gy)-induced injury to lung epithelial cells (cellular atypia); type: in vivo
[7] = tested on: mice exposed to whole body irradiation; assay: Protection against whole body irradiation induced mortality (30 days survival); type: in vivo, BALB/c mice; details: for Extent of protection offered to mice against radiation induced mortality: Oral; for protection against radiation induced mortality as monitored by 30 days survival: 100-1000 mg/kg b.w. (preferred 180-500) orally, table of expected outcome
Procedure: (§5) Experimental animals 8- to 9 weeks-old inbred BALB/c male mice, weighing approximately 20-25 g, were treated with CHL formulation at the dose of 500 mg/Kg bw given orally for 3 consecutive days followed by whole body irradiation [using a 60Co γ-irradiator at a dose rate of 1 Gy/min (BhabhatronI II, Panacea, India)] of 7.5 Gy in one group and 6 Gy radiation to another group. Treated groups were compared to untreated control and mice treated only with CHL formulation at the given dose and mice with whole body irradiation without the CHL formulation.
To assess the in vivo radio protective efficacy of chlorophyllin, mice were given three consecutive oral administrations of: CHL formulation 1 containing chlorophyllin (500-mg/kg bw) and penicillin (10-50 mg/kg+ streptomycin 20-80 mg/kgbw) or CHL formulation 2 containing chlorophyllin (500 mg/kg bw) and tetracycline (20-80 mg/kgbw) at 24 h interval and were exposed to 8 Gy dose of whole body irradiation (which is used as a supplement to surgery during radiotherapy of cancer patients) 2 h after the last injection. Formulation 3 is chlorophyllin alone given at a dose of 500 mg/kg bw for three consecutive days with a gap of 24 h between each dose.
Trials were conducted where chlorophyllin formulation ranging from 90 mg/kg bw to 2000 mg/kg body weight were administered to mice by oral gavage for three to four consecutive days at 24 h interval between doses. Alternatively, chlorophyllin was administered by intraperitoneal route (100 mg/kg body weight) for three consecutive days at 24 h interval. The mice were exposed to different doses of whole body irradiation (7.0 Gy, 7.5 Gy or 8 Gy) 2 h after last dose of chlorophyllin. The mice were monitored for changes in body weight and survival up to 30 days after WBI.

[8] = tested on: A549 human lung cancer cells; assay: γH2AX foci formation assay, A549; type: cell-based; details: 50 μM
Procedure: as §4

[9] = tested on: lineage negative cells in the bone marrow; assay: Cell cycle of lineage negative cells in the bone marrow; type: in vivo, mice; details: specified dose
rats = assay: Acute oral toxicity in rats; type: in vivo; details: up to an acute oral dose of 5 gm per Kg body weight
[10] = tested on: mice exposed to whole body irradiation; assay: Protection against whole body irradiation induced mortality (30 days survival); type: in vivo, BALB/c mice; details: 100 mg/kg bw, Intra peritoneal, 7.0 Gy
[11] = tested on: MDA-MB 231 triple negative breast cancer cells; assay: Cancer stem cell frequency (CD24-CD44+, Hoechst side population), MDA-MB231; type: cell-based, human; details: 50 μM, 4 Gy or 8 Gy
Procedure: as §1

bone marrow cellularity = assay: Bone marrow cellularity after 6 Gy whole body radiation; type: in vivo, BALB/c mice; details: 500 mg/Kg bw orally for 3 consecutive days
Procedure: as §5

[12] = tested on: MCF-7 human breast cancer xenograft tumors; assay: In vivo radiosensitization of human breast cancer xenograft in SCID mice
Procedure: MCF-7 cells (10×10^6 in 50 μl 1×PBS and 50 μl matrigel) were injected subcutaneously in foot pad of each mouse and tumors were monitored till they developed to measurable size. Mice were then treated with 500 mg/Kg bw chlorophyllin in PBS orally for three consecutive days. After last dose administration mice were locally exposed to IR 6 Gy (at the site of tumor) and subsequently monitored for 30 days for tumor growth and survival. Measurements of tumor were taken on alternate days using digital Vernier caliper and tumor volume was recorded. At the end of 30 days tumour mass was excised for further analysis.

mice = assay: Acute oral toxicity in mice; type: in vivo; details: up to an acute oral dose of 5 gm per Kg body weight
bone marrow cells = assay: Colony forming units in bone marrow cells of whole body irradiated mice; type: cell-based; details: bone marrow cells in vitro
[13] = tested on: MCF7 human breast cancer cells; assay: Clonogenic survival assay, MCF7; type: cell-based
Procedure: as §2

[14] = chlorophyllin alone, 10-100 μM, 2 h

## chlorophyllin
[1]; 50 μM
  percentage of CD24-CD44+ cancer stem cells, combination with radiation: more effective than radiation or chlorophyllin alone
[1]; 100 μM
  radiation induced increase in ALDH-positive cells: significantly attenuated
MCF-7 cells; 4 Gy IR
  radiation induced increase in intracellular ROS levels: attenuated
MCF-7 cells; no radiation
  background levels of free radicals: able to scavenge
[2]; 4 Gy or 8 Gy, 10-100 μM
  radiation toxicity in human breast cancer cells in vitro: enhanced the radiation toxicity
[2]; chlorophyllin prior to 4 Gy or 8 Gy, 48 h
  mitotic abnormalities (micronuclei, multinucleated giant cells): pattern of mitotic catastrophe
[3]
  serum half-life: 2.363 h
[4]; A549, 4 Gy, CHL 10, 20, 50 or 100 μM
  sensitization to radiation induced loss of clonogenic capacity: able to sensitize
[4]; [14]
  colony forming ability of A549 cells as compared to control: significantly decreased
G-CSF
  serum levels of G-CSF: maximum rise after 24 hrs
[5]
  increase of hematopoietic stem cells versus control: 2-3 fold
[5]; control 0.121%
  abundance of hematopoietic stem cells (Hoechst side population): 0.573%
[6]; 15 min after 4 Gy
  number of γ-H2AX foci versus radiation alone: did not have any effect
[6]; 120 minutes after 4 Gy
  number of γ-H2AX foci versus radiation alone: significantly higher
Gr-1+ granulocytes; 500 mg/Kg bw orally for 3 days
  neutrophil frequency in the peripheral blood: increased neutrophil frequency
  production of granulocytes (Gr-1+) in bone marrow: increase in the production of granulocytes
Gr-1+ granulocytes; doses up to 900 mg/kg body weight
  percent granulocytes, dose response: increases up to 180 mg/kg and then plateaus up to 540 mg/kg body weight dose
Normal lung epithelia
  gamma radiation-induced injury to normal lung epithelia (cellular atypia): reduced
[7]; 90 mg/kg bw, 3 days, 7.5 Gy
  Extent of protection offered to mice against radiation induced mortality: 66.6%
[7]; 180 mg/kg bw, 3 days, 7.5 Gy
  Extent of protection offered to mice against radiation induced mortality: up to 100%
[7]; 180 mg/kg bw, 3 days, 7.5 Gy, listed as Chlorophyllin
  Extent of protection offered to mice against radiation induced mortality: 100%
[7]; 500 mg/kg bw, 3 days, 7.5 Gy
  Extent of protection offered to mice against radiation induced mortality: 70%
[7]; 2000 mg/kg bw, 4 days, 7.0 Gy
  Extent of protection offered to mice against radiation induced mortality: 50%
[7]; 7.5 Gy, 500 mg/Kg bw orally for 3 consecutive days
  protection against whole body irradiation induced mortality: significantly protected
[7]; 7.5 Gy, three consecutive days, without antibiotics
  protection against radiation induced mortality as monitored by 30 days survival: 100%
[7]; 8 Gy WBI, 500 mg/kg bw, three consecutive days, 80% of irradiated mice died within 17 days
  rescue from WBI-induced mortality, 30 days survival: rescued all the mice
[7]; 8 Gy, three consecutive days, with antibiotics
  protection against radiation induced mortality as monitored by 30 days survival: 100%
[7]; chlorophyllin 500 mg/kg bw, 3 days, 8.0 Gy
  Extent of protection offered to mice against radiation induced mortality: 60%
[8]; 15 min after 4 Gy
  number of γ-H2AX foci versus radiation alone: did not have any effect
[8]; 120 minutes after 4 Gy
  number of γ-H2AX foci versus radiation alone: significantly higher
[9]
  cell cycle effect in lineage negative cells in the bone marrow: transient cell cycle arrest
rats
  toxicity: did not show any toxicity
[10]; 1 day
  Extent of protection offered to mice against radiation induced mortality: 30%
[10]; 4 days
  Extent of protection offered to mice against radiation induced mortality: 70%
[11]
  percentage of CD24-CD44+ cancer stem cells, combination with radiation: more effective than radiation or chlorophyllin alone
Bone marrow cellularity
  recovery from radiation induced bone marrow aplasia: enhanced the recovery
[12]; 500 mg/Kg bw orally for three days + 6 Gy focal irradiation
  prevention of growth of human breast cancer cells in SCID mice: most effective
[12]; 6 Gy, 100-1000 mg/kg b.w. (preferred 180-500) orally, three consecutive days, without antibiotics, table of expected outcome
  reduction in tumor after exposure to IR as compared to control mice bearing human xenograft: (50%
[12]; chlorophyllin alone, 500 mg/Kg bw orally for three consecutive days
  tumour volume: significant decrease
mice
  toxicity: did not show any toxicity
Bone marrow cells
  number of colony forming units (CFUs) in bone marrow cells: significantly increased
[13]; MCF-7, 4 Gy, CHL 10, 20, 50 or 100 μM
  sensitization to radiation induced loss of clonogenic capacity: significantly sensitized
[13]; [14]
  colony forming ability of MCF-7 cells as compared to control: significantly decreased
